Reference: PubChem BioAssay (NCI)
“And” between values parts separate entries of the source, which are not always exact repeats. Equal values may be shown once.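 Growth conditions: 96-well plates. Treatment: test compound, 48 hours, 5 concentrations. Analysis: linear interpolation between bracketing concentrations; unreached endpoints set to highest concentration. GI50: concentration for 50% inhibition of growth. TGI is the concentration that stops growth completely.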

Assays:
Experiment in all cases: DTP human tumour cell line panel, 48 h
OVCAR-8 ovarian = tested on: OVCAR-8 ovarian
RPMI-8226 leukemia = tested on: RPMI-8226 leukemia
SNB-75 CNS = tested on: SNB-75 CNS
SF-539 CNS = tested on: SF-539 CNS
SK-MEL-2 melanoma = tested on: SK-MEL-2 melanoma
MCF7 breast = tested on: MCF7 breast
SR leukemia = tested on: SR leukemia
A549 NSCLC = tested on: A549 NSCLC
NCI/ADR-RES ovarian = tested on: NCI/ADR-RES ovarian
SF-295 CNS = tested on: SF-295 CNS

SMILES | GI50 (OVCAR-8 ovarian) | TGI (OVCAR-8 ovarian) [µM] | GI50 (RPMI-8226 leukemia) | TGI (RPMI-8226 leukemia) [µM] | GI50 (SNB-75 CNS) [µM] | TGI (SNB-75 CNS) [µM] | GI50 (SF-539 CNS) | TGI (SF-539 CNS) [µM] | GI50 (SK-MEL-2 melanoma) [µM] | TGI (SK-MEL-2 melanoma) [µM] | GI50 (MCF7 breast) | TGI (MCF7 breast) [µM] | GI50 (SR leukemia) | TGI (SR leukemia) [µM] | GI50 (A549 NSCLC) | TGI (A549 NSCLC) [µM] | GI50 (NCI/ADR-RES ovarian) | TGI (NCI/ADR-RES ovarian) [µM] | GI50 (SF-295 CNS) [µM] | TGI (SF-295 CNS) [µM]
COc1ccc(-c2cc(/C=C3\C(=O)Nc4cc(Cl)ccc43)[nH]n2)cc1 | 4.55 µM | 98.6 | 3.3 µM | 40 | 1.78 | 6.96 | 2.41 µM | 7.52 | 4.35 | > 100 | 2.19 µM | 37.3 | 2.44 µM | 14.1 | 5.49 µM | > 100 | 2.79 µM | 17.5 | 2.68 | 12.2
C/C(CCC(=O)O)=N/Nc1ccc([N+](=O)[O-])cc1 | 42.6 µM | > 100 | 57.7 µM | > 100 | > 100 | > 100 | 3.18 µM | 14.8 | 66.3 | > 100 | 24.4 µM | > 100 | 9.3 µM | > 100 | 4.41 µM | > 100 | 4.44 µM | > 100 | 2.36 | > 100
Cc1ccc([Se](=C(C(=O)c2ccccc2)C(=O)c2ccccc2)c2ccc(C)cc2)cc1 |  | > 100 |  | 22.4 |  | > 100 |  | 66 |  | > 100 |  | > 100 |  | 33.2 |  | > 100 |  | > 100 |  | 66.5
O=C(Cn1c(C(=O)c2ccc(Cl)cc2)nc(-c2ccc(Cl)cc2)c1-c1ccc(Cl)cc1)c1ccccc1 | > 100 µM | > 100 | > 100 µM | > 100 | > 100 | > 100 | > 100 µM | > 100 | > 100 | > 100 | > 100 µM | > 100 | > 100 µM | > 100 | > 100 µM | > 100 | > 100 µM | > 100 | > 100 | > 100
COc1cc(-c2cc3ncccc3c3nc(OCCN(C)C)c4cccnc4c23)cc(OC)c1OC | 0.339 µM | 1.94 | 0.372 µM | 2.79 | 0.414 | 2.2 | 0.741 µM | 3.39 | 0.744 | 3.71 | 0.389 µM | 14.8 | 0.244 µM | 2.07 | 0.346 µM | 1.54 | 0.383 µM | 2.1 | 0.533 | 2.39
N#CC1C[C@@H]2CC3(CCC2CN1C(=O)c1ccccc1)OCCO3 (stereo partly specified) |  | > 100 |  | > 100 |  | > 100 |  | > 100 |  | > 21.6 | > 100 µM | > 100 |  | > 100 |  | > 100 | > 100 µM | > 100 |  | > 100
Cc1ccccc1C1=C(c2cn(C)c3ccccc23)C(=O)NC1=O | > 22.5 µM | > 25 | 20 µM | > 25 | 0.644 | > 25 | 13.7 µM | > 25 | 24.9 | > 25 | 9.2 µM | > 25 | 7.78 µM | > 25 | 12.2 µM | > 25 | 24.3 µM | > 25 | 14.7 | > 25
CC1(C)CC(=O)C=C(/C=C/Sc2c(Cl)c(Cl)nc(Cl)c2Cl)C1 | 19.3 µM | 45 | 3.41 µM | 75.1 | 15.9 | 31.5 | 11.8 µM | 26.4 | 70.2 | > 100 | 2.47 µM | 8.05 | 3.89 µM | > 100 | 15.4 µM | 29.8 | 11.3 µM | 25.6 | 17.7 | 35.6
CCc1ccccc1NC(=O)C(C#N)C1=C(Cl)C(=O)c2ccccc2C1=O (stereo unspecified) |  | 37 |  | 77.9 |  | 35.4 |  | 37.2 |  | 37.2 |  | 57 |  | > 100 |  | 54.7 |  | 34.2 |  | 52.6
Cc1ccc(-c2nc3nc(-c4ccc(F)cc4)nc(N4CCNCC4)c3o2)cc1 | 2.35 µM | 5.82 | 2.36 µM | 5.49 | 11.6 | 23.9 | 1.67 µM | 3.12 | 14.9 | 35.4 | 1.66 µM | 3.51 | 0.323 µM | 1.13 | 2.1 µM | 4.74 | 2.11 µM | 4.47 | 18.3 | 33.9
COC(=O)Oc1nn(C(=O)OC)c(=O)c2ccccc12 |  | > 100 |  | > 100 |  | > 100 |  | > 100 |  | > 100 |  | > 100 |  | > 100 |  | > 100 |  | > 100 |  | > 100
Cc1ccc([P+](Cc2ccccc2)(c2ccccc2)c2ccccc2)cc1 | 1.74 µM | 11.3 | 0.6 µM | 6.63 | 2.21 | 9.71 | 3.03 µM | 50.9 | 2.35 | 5.63 | 1.92 µM | > 100 | 2.66 µM | 16.5 | 3.08 µM | 64.8 | 47.8 µM | > 100 | 2.36 | 7.69
CC1=C/C=C/C(=O)O[C@@H]([C@H](C)[C@H](O)[C@@H](C)NC(=O)C(C)C)[C@H](C)/C=C/C(C)=C/[C@H]2C=CCC[C@@]2(C)\C=C\1 | 3.17 µM and 0.989 µM | 34.2 | 0.705 µM and 0.703 µM | 12.3 |  | > 42.3 | 0.0586 µM and 0.0588 µM | 5.3 | 6.98 | 20.4 | 0.0746 µM and 0.0382 µM | 23.7 | 0.41 µM and 0.191 µM | 5.58 | 1.83 µM and 0.328 µM | 13.2 | 1.43 µM and 0.879 µM | 27.6 | 0.0264 | 7.5
C[C@H](c1ccc(F)cc1CCCC(=O)O)N(c1cc(F)ccc1F)S(=O)(=O)c1ccc(Cl)cc1 | 38 µM | > 100 | 30 µM | > 88.5 | 29.4 | > 91.3 | 24.5 µM | 67.9 | 19.7 | 41.7 | 31.2 µM | > 100 | 30.4 µM | 98.1 | 28.1 µM | > 100 | 30.6 µM | > 100 | 23.1 | > 75.9
COC(=O)C12CCC(C)(C)CC1C1=CCC3C4(C)CC(O)C(O)C(C)(C(=O)OC)C4CCC3(C)C1(CO)CC2 (stereo unspecified) |  | 31.5 |  | 40.9 |  | 25.3 |  | 31.6 |  | 28.2 |  | 29.8 |  | 31.4 |  | 29 |  | 29.2 |  | 28.8
ClCCCSSCCCCl |  | > 75.8 |  | > 100 |  | > 100 |  | 48.8 |  | > 100 |  | 97.6 |  | > 25.8 |  | > 100 |  | > 78 |  | > 100
C[C@@H](N)COc1ccc(-c2cnc3ccc(N[C@H](C)c4cccc(F)c4)nn23)cc1 | 1.84 µM | 4.3 | 1.81 µM | 5.3 | 5.15 | 20.6 | 1.52 µM | 2.86 | 1.99 | 4.48 | 1.24 µM | 2.69 | 0.0715 µM | 1.8 | 1.53 µM | 3.82 | 2.43 µM | 7.12 | 1.8 | 4.01
CS(=O)(=O)N1CCC(n2c(=O)c(Oc3ccc(F)cc3F)cc3cnc(NC4CCOCC4)nc32)CC1 | > 25 µM | > 25 | > 17.5 µM | > 25 | > 25 | > 25 | > 25 µM | > 25 | > 25 | > 25 | > 25 µM | > 25 | > 25 µM | > 25 | > 25 µM | > 25 | > 25 µM | > 25 | > 25 | > 25
COc1cc2c(NCCCCCO)ncnc2c(OC)c1OC |  | > 100 |  | > 100 |  | > 100 |  | > 100 |  | > 100 |  | > 100 |  | > 100 |  | > 100 |  | > 100 |  | > 100
COc1cc(OC)cc(Oc2cnc3cc(N)cc(N)c3n2)c1 | 22.6 µM | 52.5 | 24 µM | 53.7 | 3.92 | 18.6 | 21.3 µM | 43.7 | 19.7 | 43.3 | 20.5 µM | 49.3 | 11.3 µM | 26.1 | 22.8 µM | > 100 | 16.1 µM | 43.5 | 11.6 | 32.7
CN1CCN(C(=O)[C@@]2(C)CC[C@]3(C)CC[C@]4(C)C(=CC[C@@H]5[C@@]6(C)CCC(=O)NC(C)(C)[C@@H]6CC[C@]54C)[C@@H]3C2)CC1 | 3.94 µM | 14.8 | 1.43 µM | 3.74 | 1.57 | 3.34 | 1.56 µM | 2.9 | 1.94 | 3.84 | 1.83 µM | 4.17 | 0.391 µM | 4.47 | 2.02 µM | 5.28 | 3 µM | 11.9 | 1.53 | 3.07
CCCCCCC1N=C(N)N=C(N)N1c1cccc(Cl)c1 (stereo unspecified) | 0.612 µM | 19.5 | 0.904 µM | 22 | 0.347 | 6.75 | 0.0846 µM | 5.76 | 11.3 | 27.7 | 0.368 µM | 12.7 | 0.748 µM | > 42.7 | 0.181 µM | > 44.5 | 75.8 µM | > 100 | 0.102 | 1.71
Cc1cc(Cl)nc2ccc(Cc3ccc4nc(Cl)cc(C)c4c3)cc12 |  | > 100 |  | > 100 |  | 19.8 |  | 32 |  | > 100 |  | 91.5 |  | > 100 |  | > 100 |  | > 100 |  | > 100
NC(=O)c1cccc2c(N[C@H](CN3CCC3)c3ccc(Cl)c(C(F)(F)F)c3)ncnc12 | 4.55 µM | 19.2 | 2.69 µM | 9.06 | 0.0506 | 0.918 | 0.154 µM | 1.71 | 1.96 | 9.74 | 0.396 µM | 3.75 | 1.35 µM | 6.58 | 1.47 µM | 12.4 | 2.52 µM | 14.4 | 0.293 | 2.88
Oc1c(C(Nc2ccccn2)c2cccc(Oc3ccccc3)c2)ccc2cccnc12 (stereo unspecified) | 0.424 µM | 19.7 | 0.6 µM | 84 | 0.433 | 11.4 | 0.372 µM | 3.56 | 1.68 | 21 | 0.416 µM | 13.9 | 0.508 µM | > 100 | 0.544 µM | 20 | 0.416 µM | > 100 | 0.392 | 13.3
Oc1cc(N2CC2)c(O)cc1N1CC1 | 1.25 µM | 9.44 | 1.53 µM | 9.74 | 1.14 | 2.6 | 0.389 µM | 2.38 | 1.46 | 4.55 | 0.387 µM | 4.21 | 0.159 µM | 4.03 | 0.783 µM | 10.7 | 0.961 µM | 7.55 | 0.377 | 5.32
CNC(=O)c1nn(C)c2c1C(C)(C)Cc1cnc(Nc3cccc(N4CCN(C)CC4)c3)nc1-2 | 1.25 µM | 22.3 | 0.192 µM | 1.06 | 0.159 | 1.42 | 0.406 µM | 3.06 | 0.244 | 4.22 | 0.304 µM | 15.5 | 0.286 µM | 7.88 | 0.34 µM | 13.8 | 2.1 µM | > 48.8 | 0.332 | 6.84
